Test results: US7393865B2, “Sleep inducing compounds and methods relating thereto” (Neurocrine Biosciences, Inc., priority 2004, dated 2008)

Biological target: T1, human H1 receptor (Homo sapiens, UniProt P35367)
T1 construct: expressed in transfected cells; host or cells: CHO cells (crude membranes)
Experiment: Human histamine H1 receptor binding assay
Settings: competition with 1.5 nM [pyridinyl-5-3H] Pyrilamine, crude membranes of CHO cells transfected with human H1 receptor; Ki from IC50 by Cheng-Prusoff
Experimental: Compounds of the present invention may be evaluated for binding to the histamine H1 receptor by a standard binding assay. […] Pyrilamine (˜30 Ci/mmol, Amersham TRK608) in the presence of varying concentrations of competing ligand. Non-specific binding is determined in the presence of excess (1 μM) doxepin. Bound and free ligand are separated by rapid vacuum filtration using a Packard 96-well cell harvester onto UniFilter GF/C filter plates (PerkinElmer) that has been pretreated with 1% polyethyleneimine. The filter plates are then washed with 600 μl phosphate buffered saline containing 0.01% (v/v) Triton-X100. Bound radioligand is determined by scintillation counting using a TopCount-NXT (Packard). Binding data is analyzed by nonlinear, least-squares curve fitting algorithms using GraphPad Prism (GraphPad Software, Inc. San Diego, Calif.) or ActivityBase (IDBS, Guildford, Surrey, UK).

T1 sequence (P35367 whole entry): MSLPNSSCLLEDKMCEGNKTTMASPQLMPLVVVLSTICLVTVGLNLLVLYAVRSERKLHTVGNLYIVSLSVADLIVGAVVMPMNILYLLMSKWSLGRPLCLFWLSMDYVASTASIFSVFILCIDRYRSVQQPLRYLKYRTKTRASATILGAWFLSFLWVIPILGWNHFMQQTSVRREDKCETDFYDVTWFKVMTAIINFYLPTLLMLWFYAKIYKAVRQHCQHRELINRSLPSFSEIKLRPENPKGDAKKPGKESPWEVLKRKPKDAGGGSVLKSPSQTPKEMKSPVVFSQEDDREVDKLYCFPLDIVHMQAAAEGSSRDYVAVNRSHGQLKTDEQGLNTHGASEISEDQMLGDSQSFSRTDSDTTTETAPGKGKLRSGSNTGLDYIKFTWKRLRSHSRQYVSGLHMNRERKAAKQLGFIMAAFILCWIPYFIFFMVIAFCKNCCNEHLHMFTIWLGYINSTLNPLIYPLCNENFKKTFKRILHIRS

| Compound | Ki [µM] |
| --- | --- |
| C=C(c1ccccn1)c1c(CCN(C)C)sc2cc(C)ccc12 [Compound 4-6, Dimethyl-{2-[6-methyl-3-(1-pyridin-2-yl-vinyl)-benzo[b]thiophen-2-yl]-ethyl}-amine] | ≤ 1 |
| C=C(c1ccncc1)c1c(CCN(C)C)sc2ccccc12 [Compound 6-5, Dimethyl-{2-[3-(1-pyridin-4-yl-vinyl)-benzo[b]thiophen-2-yl]-ethyl}-amine] | ≤ 1 |
| CCCN(C)CCc1sc2ccccc2c1C(C)c1ccccn1 (centres unmarked) [Compound 9-2, Methyl-propyl-{2-[3-(1-pyridin-2-yl-ethyl)-benzo[b]thiophen-2-yl]-ethyl}-amine] | ≤ 1 |
| CN(C)CCc1sc2ccccc2c1C(C)(O)c1ccccn1 (centres unmarked) [Compound 6-1, 1-[2-(2-Dimethylamino-ethyl)-benzo[b]thiophen-3-yl]-1-pyridin-2-yl-ethanol] | ≤ 1 |
| Cc1ccc2c(C(C)c3ccccn3)c(CCN(C)C)sc2c1 (centres unmarked) [Compound 4-2, Dimethyl-{2-[6-methyl-3-(1-pyridin-2-yl-ethyl)-benzo[b]thiophen-2-yl]-ethyl}-amine] | ≤ 1 |
| CN(C)CCc1sc2ccccc2c1Cc1nccs1 [Compound 13-5, Dimethyl-[2-(3-thiazol-2-ylmethyl-benzo[b]thiophen-2-yl)-ethyl]-amine] | ≤ 1 |
| Cc1ccnc(C(C)c2c(CCN(C)C)sc3ccccc23)c1 (centres unmarked) [Compound 5-3, Dimethyl-(2-{3-[1-(4-methyl-pyridin-2-yl)-ethyl]-benzo[b]thiophen-2-yl}-ethyl)-amine] | ≤ 1 |
| CN(C)CCc1sc2ccccc2c1Cc1ccc(F)cc1 [Compound 3-2, {2-[3-(4-Fluoro-benzyl)-benzo[b]thiophen-2-yl]-ethyl}-dimethyl-amine] | ≤ 1 |
| CN(C)CCc1sc2ccccc2c1Cc1ccccn1 [Compound 13-3, Dimethyl-[2-(3-pyridin-2-ylmethyl-benzo[b]thiophen-2-yl)-ethyl]-amine] | ≤ 1 |
| CN(C)CCc1sc2ccccc2c1Cc1cccc(O)n1 [Compound 13-8, 6-[2-(2-Dimethylamino-ethyl)-benzo[b]thiophen-3-ylmethyl]-pyridin-2-ol] | ≤ 1 |
| C[C@H](c1ccc(F)cn1)c1c(CCN(C)C)sc2ccccc12 [Compound 7-5, (2-{3-[(S)-1-(5-Fluoro-pyridin-2-yl)-ethyl]-benzo[b]thiophen-2-yl}-ethyl)-dimethyl-amine] | ≤ 1 |
| CN(C)CCc1sc2ccccc2c1Cc1cscn1 [Compound 13-6, Dimethyl-[2-(3-thiazol-4-ylmethyl-benzo[b]thiophen-2-yl)-ethyl]-amine] | ≤ 1 |
| C[C@@H](c1ccc(F)cn1)c1c(CCN(C)C)sc2ccccc12 [Compound 7-4, (2-{3-[(R)-1-(5-Fluoro-pyridin-2-yl)-ethyl]-benzo[b]thiophen-2-yl}-ethyl)-dimethyl-amine] | ≤ 1 |
| Cc1ccc2c([C@@H](C)c3ccccn3)c(CCN(C)C)sc2c1 [Compound 4-3, Dimethyl-{2-[6-methyl-3-((R)-1-pyridin-2-yl-ethyl)-benzo[b]thiophen-2-yl]-ethyl}-amine] | ≤ 1 |
| CC(c1cnccn1)c1c(CCN(C)C)sc2ccccc12 (centres unmarked) [Compound 11-2, Dimethyl-{2-[3-(1-pyrazin-2-yl-ethyl)-benzo[b]thiophen-2-yl]-ethyl}-amine] | ≤ 1 |

Further lines, results first:

| Ki [µM] | Compound |
| --- | --- |
| ≤ 1 | C[C@H](c1cscn1)c1c(CCN2CCCC2)sc2ccccc12 [Compound 19-6, 4-{(S)-1-[2-(2-Pyrrolidin-1-yl-ethyl)-benzo[b]thiophen-3-yl]-ethyl}-thiazole] |
| ≤ 1 | COc1ncccc1C(C)c1c(CCN(C)C)sc2ccccc12 (centres unmarked) [Compound 15-4, Dimethyl-(2-{3-[1-(2-methoxy-pyridin-3-yl)-ethyl]-benzo[b]thiophen-2-yl}-ethyl)-amine] |
| ≤ 1 | CC(c1cccnc1F)c1c(CCN(C)C)sc2ccccc12 (centres unmarked) [Compound 15-7, Dimethyl-(2-{3-[1-(2-fluoro-pyridin-3-yl)-ethyl]-benzo[b]thiophen-2-yl}-ethyl)-amine] |
| ≤ 1 | CC(c1cncs1)c1c(CCN(C)C)sc2ccccc12 (centres unmarked) [Compound 17-2, Dimethyl-{2-[3-(1-thiazol-5-yl-ethyl)-benzo[b]thiophen-2-yl]-ethyl}-amine] |
| ≤ 1 | C[C@@H](c1ccccn1)c1c(CCN2CCCC2)sc2ccccc12 [Compound 20-3, 2-{(R)-1-[2-(2-Pyrrolidin-1-yl-ethyl)-benzo[b]thiophen-3-yl]-ethyl}-pyridine] |
| ≤ 1 | COc1ncccc1[C@H](C)c1c(CCN(C)C)sc2ccccc12 [Compound 15-6, Dimethyl-(2-{3-[(S)-1-(2-methoxy-pyridin-3-yl)-ethyl]-benzo[b]thiophen-2-yl}-ethyl)-amine] |
| ≤ 1 | C[C@@H](c1ncccc1F)c1c(CCN(C)C)sc2ccccc12 [Compound 18-4, (2-{3-[(R)-1-(3-Fluoro-pyridin-2-yl)-ethyl]-benzo[b]thiophen-2-yl}-ethyl)-dimethyl-amine] |
| ≤ 1 | C[C@H](c1cncs1)c1c(CCN(C)C)sc2ccccc12 [Compound 17-4, Dimethyl-{2-[3-((S)-1-thiazol-5-yl-ethyl)-benzo[b]thiophen-2-yl]-ethyl}-amine] |
